Assay results taken from patent publication US12528813B2, “Substituted imidazo[4,5-b]pyridines as M3 receptor PAMs” (NIPPON SHINYAKU CO., LTD., priority 2019, dated 2026).

Assays:
anesthetized rats [1] = assay: Effect on increase in intravesical pressure induced by pelvic nerve electrical stimulation in anesthetized rats; assay type: in vivo, rat; details: anesthetized SD female rats; for Ratio of Change Rc of AUC of increase in intravesical pressure (maximum during 1 hour after administration) / change in vivo at 0.3 mg/kg: test compound 0.3 mg/kg intravenous, single dose; for change in vivo at 0.3 mg/kg: Rattus norvegicus, 1 h, read-out: Ratio of Change Rc of AUC of increase in intravesical pressure (maximum during 1 hour after administration)
Procedure: As the action of nerve stimulation-dependent bladder contraction in vivo, the action of the test compound on increase in intravesical pressure induced by pelvic nerve electrical stimulation using rats was measured by the following method.
SD female rats (Japan SLC, Inc.) were anesthetized by subcutaneously administering 1200 mg/kg of urethane (manufactured by Fujifilm Wako Pure Chemical Industries, Ltd.), and then the lower abdomen of each rat was incised at the midline. After the ureters on both sides were ligated and cut, a cannula for measuring intravesical pressure (PE-60, manufactured by BECTON DICKINSON) was inserted into the bladder through the external urethral orifice and fixed with sutures. After about 200 μL of saline was injected via the cannula inserted into the bladder, the other end of the cannula was connected to a pressure transducer to measure intravesical pressure.
The pelvic nerve near the bladder of the rat was separated under stereomicroscope observation and an electrode for nerve stimulation (K2-14015M-PT, manufactured by BrainScience idea. Co., Ltd.) was attached. The peritoneal cavity of the rat was filled with liquid paraffin (26114-75, NACALAI TESQUE, INC.). After the postoperative rest period, the pelvic nerve was electrically stimulated to cause an increase in intravesical pressure, using an electrical stimulator (SEN-7203, manufactured by NIHON KOHDEN CORPORATION). At this time, the stimulation frequency was set to 8 Hz, the pulse width was set to 0.3 ms, and the stimulation time was set to 10 seconds. The voltage of the electrical stimulator was adjusted such that the increase in intravesical pressure was about 50% to 70% of that at stimulation with 10 V.
Then, the electric stimulation was repeated at an interval of 10 minutes. After the increase in intravesical pressure induced by electric stimulation was stabilized three times or more, a test compound (dosage 0.3 mg/kg), distigmine bromide (dosage 0.03, 0.1 mg/kg), or a vehicle was intravenously administered at a single dosage of 1.0 mL/kg via a catheter placed into a femoral vein, and the effect of the test compound on increase in intravesical pressure was measured for 1 hour. Saline was used as a vehicle, and the test compound was dissolved in dimethylsulfoxide and then added to the vehicle. At this time, the final concentration of dimethylsulfoxide was set to 10%.
The response data (intravesical pressure) were imported to a personal computer via a data collection and analysis system (PowerLab (registered trademark), manufactured by ADInstruments) and analyzed using analysis software (LabChart (registered trademark), manufactured by ADInstruments). For each electric stimulation, AUC of the increase in intravesical pressure (area under the curve of plot of intravesical pressure) was calculated, and a ratio of change Rc (unit: %) with respect to the value (AUC) before administering the test compound was calculated according to the following equation (2). In the equation (2), Ab denotes AUC before administering the test compound, and Aa denotes AUC after administering the test compound. In addition, the maximum effect observed during 1 hour after administering the test compound (maximum ratio of change Rc) was defined as the effect of the test compound. The higher the ratio of change Rc, the higher the effect of enhancing bladder contraction force and the higher the effect of increasing intravesical pressure. Rc=100×(Aa−Ab)/Ab (2)

anesthetized rats [2] = assay: as above; assay type: in vivo, rat; details: intravenous, 0.1 mg/kg

| Compound | change in vivo at 0.3 mg/kg (anesthetized rats [1]) [%] | other results |
| --- | --- | --- |
| COCC1(CN(C)c2cc(-c3cnc(C4CC4)c(C(F)(F)F)c3)nc3nc(NC(=O)c4ccc(C5CC5C(=O)O)cn4)[nH]c23)CCCC1 (stereo not drawn) [Compound 49] |  | Ratio of Change Rc of AUC of increase in intravesical pressure (maximum during 1 hour after administration) (anesthetized rats [1]): 43.6% |
| COCC1(CN(C)c2cc(-c3cnc(C4CC4)c(C(F)(F)F)c3)nc3nc(NC(=O)c4cn(C[C@@H](C)C(=O)O)cn4)[nH]c23)CCCC1 [Compound 53] |  | Ratio of Change Rc of AUC of increase in intravesical pressure (maximum during 1 hour after administration) (anesthetized rats [1]): 50.2% |
| COCC1(CN(C)c2cc(-c3cnc(C4CC4)c(C(F)(F)F)c3)nc3nc(NC(=O)c4ccc(CCC(=O)O)cn4)[nH]c23)CCCC1 [Example 1, 3-[6-({5-[6-Cyclopropyl-5-(trifluoromethyl)pyridin-3-yl]-7-({[1-(methoxymethyl)cyclopentyl]methyl}(methyl)amino)-1H-imidazo[4,5-b]pyridin-2-yl}carbamoyl)pyridin-3-yl]propanoic acid] | 55.3 |  |
| CCOc1cc(-c2cc(N(C)CC3(COC)CCCC3)c3[nH]c(NC(=O)c4ccc(CCC(=O)O)cn4)nc3n2)cc(C(F)(F)F)n1 [Example 2, 3-[6-({5-[2-Ethoxy-6-(trifluoromethyl)pyridin-4-yl]-7-({[1-(methoxymethyl)cyclopentyl]methyl}(methyl)amino)-1H-imidazo[4,5-b]pyridin-2-yl}carbamoyl)pyridin-3-yl]propanoic acid] | 36.5 |  |
| COCC1(CN(C)c2cc(-c3cc(C4CC4)nc(C(F)(F)F)c3)nc3nc(NC(=O)c4ccc(CCC(=O)O)cn4)[nH]c23)CCCC1 [Example 3, 3-[6-({5-[2-Cyclopropyl-6-(trifluoromethyl)pyridin-4-yl]-7-({[1-(methoxymethyl)cyclopentyl]methyl}(methyl)amino)-1H-imidazo[4,5-b]pyridin-2-yl}carbamoyl)pyridin-3-yl]propanoic acid] | 28.5 |  |
| COCC1(CN(C)c2cc(-c3cnc(C4CC4)c(C(F)(F)F)c3)nc3nc(NC(=O)c4ccc(CC(C)C(=O)O)cn4)[nH]c23)CCCC1 (stereo not drawn) [Example 4, 3-[6-({5-[6-Cyclopropyl-5-(trifluoromethyl)pyridin-3-yl]-7-({[1-(methoxymethyl)cyclopentyl]methyl}(methyl)amino)-1H-imidazo[4,5-b]pyridin-2-yl}carbamoyl)pyridin-3-yl]-2-methylpropanoic acid] | 89.5 |  |
| COCC1(CN(C)c2cc(-c3cnc(C4CC4)c(C(F)(F)F)c3)nc3nc(NC(=O)c4cn5c(n4)CCC(C(=O)O)C5)[nH]c23)CCCC1 (stereo not drawn) [Example 5, 2-({5-[6-Cyclopropyl-5-(trifluoromethyl)pyridin-3-yl]-7-({[1-(methoxymethyl)cyclopentyl]methyl}(methyl)amino)-1H-imidazo[4,5-b]pyridin-2-yl}carbamoyl)-5,6,7,8-tetrahydroimidazo[1,2-a]pyridine-6-carboxylic acid] | 49.1 |  |
| COCC1(CN(C)c2cc(-c3cnc(C4CC4)c(C(F)(F)F)c3)nc3nc(NC(=O)c4ccc(CN(C)CC(=O)O)cn4)[nH]c23)CCCC1 [Example 6] | 55.1 |  |
| COCC1(CN(C)c2cc(-c3cnc(C4CC4)c(C(F)(F)F)c3)nc3nc(NC(=O)c4cn(CCCC(=O)O)cn4)[nH]c23)CCCC1 [Example 7, 4-[4-({5-[6-Cyclopropyl-5-(trifluoromethyl)pyridin-3-yl]-7-({[1-(methoxymethyl)cyclopentyl]methyl}(methyl)amino)-1H-imidazo[4,5-b]pyridin-2-yl}carbamoyl)-1H-imidazol-1-yl]butanoic acid] | 41.8 |  |
| COCC1(CN(C)c2cc(-c3cnc(C4CC4)c(C(F)(F)F)c3)nc3nc(NC(=O)c4ccc(CCCC(=O)O)cn4)[nH]c23)CCCC1 [Example 8, 4-[6-({5-[6-Cyclopropyl-5-(trifluoromethyl)pyridin-3-yl]-7-({[1-(methoxymethyl)cyclopentyl]methyl}(methyl)amino)-1H-imidazo[4,5-b]pyridin-2-yl}carbamoyl)pyridin-3-yl]butanoic acid] | 85.7 |  |
| CCOc1cc(-c2cc(N(C)CC3(COC)CCCC3)c3[nH]c(NC(=O)c4cc5c(cn4)CN(CCC(=O)O)CC5)nc3n2)cc(C(F)(F)F)n1 [Example 9] | 44 |  |
| COCC1(CN(C)c2cc(-c3cc(C4CC4)nc(C(F)(F)F)c3)nc3nc(NC(=O)c4cc5c(cn4)CN(CCC(=O)O)CC5)[nH]c23)CCCC1 [Example 10, 3-[6-({5-[2-Cyclopropyl-6-(trifluoromethyl)pyridin-4-yl]-7-({[1-(methoxymethyl)cyclopentyl]methyl}(methyl)amino)-1H-imidazo[4,5-b]pyridin-2-yl}carbamoyl)-1,2,3,4-tetrahydro-2,7-naphthyridin-2-yl]propanoic acid] | 33.7 |  |
| COCC1(CN(C)c2cc(-c3cnc(C4CC4)c(C(F)(F)F)c3)nc3nc(NC(=O)c4ccc(CCCC(=O)O)cn4)[nH]c23)CCCCC1 [Example 11, 4-[6-({5-[6-Cyclopropyl-5-(trifluoromethyl)pyridin-3-yl]-7-({[1-(methoxymethyl)cyclohexyl]methyl}(methyl)amino)-1H-imidazo[4,5-b]pyridin-2-yl}carbamoyl)pyridin-3-yl]butanoic acid] | 80.7 |  |
| CCOc1ncc(-c2cc(N(C)CC3(COC)CCCC3)c3[nH]c(NC(=O)c4ccc(CCCC(=O)O)cn4)nc3n2)cc1C(F)(F)F [Example 12, 4-[6-({5-[6-Ethoxy-5-(trifluoromethyl)pyridin-3-yl]-7-({[1-(methoxymethyl)cyclopentyl]methyl}(methyl)amino)-1H-imidazo[4,5-b]pyridin-2-yl}carbamoyl)pyridin-3-yl]butanoic acid] | 53.4 |  |
| CCOc1ncc(-c2cc(N(C)CC3(COC)CCCCC3)c3[nH]c(NC(=O)c4ccc(CCC(=O)O)cn4)nc3n2)cc1C(F)(F)F [Example 13] | 113 |  |
| CCOc1ncc(-c2cc(N(C)CC3(COC)CCCCC3)c3[nH]c(NC(=O)c4ccc(CCCC(=O)O)cn4)nc3n2)cc1C(F)(F)F [Example 14, 4-[6-({5-[6-Ethoxy-5-(trifluoromethyl)pyridin-3-yl]-7-({[1-(methoxymethyl)cyclohexyl]methyl}(methyl)amino)-1H-imidazo[4,5-b]pyridin-2-yl}carbamoyl)pyridin-3-yl]butanoic acid] | 70.4 |  |
| CN(CCCCCCN(C)C(=O)Oc1ccc[n+](C)c1)C(=O)Oc1ccc[n+](C)c1 [distigmine bromide, reference compound] |  | nicotinic side effect (fasciculation) (anesthetized rats [2]): a nicotinic side effect (fasciculation) was observed; effect of enhancing bladder contraction force (anesthetized rats [1]; intravenous, test compound 0.3 mg/kg, distigmine bromide 0.03, 0.1 mg/kg): exhibited an effect of enhancing bladder contraction force |
